From patent US10660835B2, “Method for hair frizz reduction” (The Procter & Gamble Company, priority 2015, dated 2020)

Test: DVS water uptake after soaking treatment
Settings: pH 4.2, 40 deg C, at 90% RH
Description: The Moisture Control Material is added into a 50:50 ethanol:water solvent at a concentration of 2% w/w and mixed until completely dissolved. The solution pH is adjusted with sodium hydroxide (50% w/w) to a final pH of 4.2. The soaking solution is kept at 40 deg C. for 2 hrs until a uniform composition is obtained.
One hair switch of natural virgin brown hair is placed in 200 ml of this solution for 2 hours in an oven set at 40° C. After the 2-hour period, the hair is removed, air dried and then tested for moisture uptake using DVS. For the control experiment, a natural brown virgin hair switch of the same weight is placed in a 50:50 ethanol:water solvent and treated under identical conditions.
The % water reduction is calculated as follows: […]
Hair is soaked in active solution of pH 4.2 for different intervals of time from 10 min to 2 hrs at 40 deg C. Hair Switches are air dried and prepared for % water reduction measurement using DVS vs. control (no active).

O=C(O)c1cc(Cl)ccc1O [5-Chlorosalicylic acid]
% water reduction vs control (10 min soaking): 9.6%
% water reduction vs control (20 min soaking): 14.8%
% water reduction vs control (30 min soaking): 19%
% water reduction vs control (1 hr soaking): 26%
% water reduction vs control (2 hr soaking): 30%
